Measurements published in the NIST ThermoML archive (doi:10.1021/acs.jced.5b00367).
Values joined by “and” are separate entries in the source; they are usually repeats but may differ in a detail not shown here. Equal values may be shown once. Numbers after ± are expanded uncertainties.

Assay: wn = mass fraction of the nth substance listed
Details: 101 kPa, Liquid, Alternating current cell with electrodes, w1 = 0.01

What does the source list for `CCCCCCCCCCCC[N+](CC)(CC)CCCCCCCCCCCC.[Br-]` [didodecyldiethylammonium bromide] + O?
electrical conductivity (335.35 K): 0.052 ± 0.021 S/m; electrical conductivity (335.45 K): 0.0521 ± 0.021 S/m; electrical conductivity (335.65 K): 0.0524 ± 0.021 S/m; electrical conductivity (335.75 K): 0.0526 ± 0.021 S/m; electrical conductivity (335.95 K): 0.0528 ± 0.021 S/m; electrical conductivity (336.05 K): 0.0531 ± 0.021 S/m; electrical conductivity (336.15 K): 0.0531 ± 0.021 S/m; electrical conductivity (336.25 K): 0.0532 ± 0.021 S/m; electrical conductivity (336.35 K): 0.0536 ± 0.021 S/m; electrical conductivity (336.45 K): 0.0537 ± 0.021 S/m; electrical conductivity (336.55 K): 0.0539 ± 0.022 S/m; electrical conductivity (336.65 K): 0.0542 ± 0.022 S/m; electrical conductivity (336.75 K): 0.0544 ± 0.022 S/m; electrical conductivity (336.85 K): 0.0545 ± 0.022 S/m; electrical conductivity (336.95 K): 0.0546 ± 0.022 S/m; electrical conductivity (337.05 K): 0.0548 ± 0.022 S/m; electrical conductivity (337.15 K): 0.0549 ± 0.022 S/m; electrical conductivity (337.25 K): 0.0551 ± 0.022 S/m; electrical conductivity (337.35 K): 0.0552 ± 0.022 S/m; electrical conductivity (337.45 K): 0.0553 ± 0.022 S/m; electrical conductivity (337.55 K): 0.0556 ± 0.022 S/m; electrical conductivity (337.65 K): 0.0556 ± 0.022 S/m; electrical conductivity (337.75 K): 0.0558 ± 0.022 S/m; electrical conductivity (337.85 K): 0.0559 ± 0.022 S/m; electrical conductivity (337.95 K): 0.0563 ± 0.023 S/m; electrical conductivity (338.05 K): 0.0564 ± 0.023 S/m; electrical conductivity (338.15 K): 0.0566 ± 0.023 S/m; electrical conductivity (338.25 K): 0.0568 ± 0.023 S/m; electrical conductivity (338.35 K): 0.0569 ± 0.023 S/m; electrical conductivity (338.45 K): 0.0571 ± 0.023 S/m; electrical conductivity (338.55 K): 0.0573 ± 0.023 S/m; electrical conductivity (338.65 K): 0.0575 ± 0.023 S/m; electrical conductivity (338.75 K): 0.0577 ± 0.023 S/m; electrical conductivity (338.85 K): 0.0578 ± 0.023 S/m; electrical conductivity (338.95 K): 0.058 ± 0.023 S/m; electrical conductivity (339.05 K): 0.0583 ± 0.023 S/m; electrical conductivity (339.15 K): 0.0582 ± 0.023 S/m; electrical conductivity (339.25 K): 0.0585 ± 0.023 S/m; electrical conductivity (339.35 K): 0.0587 ± 0.023 S/m; electrical conductivity (339.45 K): 0.0588 ± 0.024 S/m; electrical conductivity (339.55 K): 0.0591 ± 0.024 S/m; electrical conductivity (339.65 K): 0.0592 ± 0.024 S/m; electrical conductivity (339.75 K): 0.0593 ± 0.024 S/m; electrical conductivity (339.85 K): 0.0596 ± 0.024 S/m; electrical conductivity (339.95 K): 0.0598 ± 0.024 S/m; electrical conductivity (340.05 K): 0.06 ± 0.024 S/m; electrical conductivity (340.15 K): 0.0602 ± 0.024 S/m; electrical conductivity (340.25 K): 0.0605 ± 0.024 S/m; electrical conductivity (340.35 K): 0.0606 ± 0.024 S/m; electrical conductivity (340.45 K): 0.0608 ± 0.024 S/m; electrical conductivity (340.55 K): 0.061 ± 0.024 S/m; electrical conductivity (340.65 K): 0.0612 ± 0.024 S/m; electrical conductivity (340.75 K): 0.0614 ± 0.025 S/m; electrical conductivity (340.85 K): 0.0614 ± 0.025 S/m; electrical conductivity (340.95 K): 0.0616 ± 0.025 S/m; electrical conductivity (341.05 K): 0.062 ± 0.025 S/m; electrical conductivity (341.15 K): 0.062 ± 0.025 S/m; electrical conductivity (341.25 K): 0.0622 ± 0.025 S/m; electrical conductivity (341.35 K): 0.0624 ± 0.025 S/m; electrical conductivity (341.45 K): 0.0625 ± 0.025 S/m; electrical conductivity (341.55 K): 0.0627 ± 0.025 S/m; electrical conductivity (341.65 K): 0.0629 ± 0.025 S/m; electrical conductivity (341.75 K): 0.063 ± 0.025 S/m; electrical conductivity (341.85 K): 0.0633 ± 0.025 S/m; electrical conductivity (341.95 K): 0.0633 ± 0.025 S/m; electrical conductivity (342.05 K): 0.0637 ± 0.025 S/m; electrical conductivity (342.15 K): 0.0639 ± 0.026 S/m; electrical conductivity (342.25 K): 0.064 ± 0.026 S/m; electrical conductivity (342.35 K): 0.0642 ± 0.026 S/m; electrical conductivity (342.45 K): 0.0643 ± 0.026 S/m; electrical conductivity (342.55 K): 0.0645 ± 0.026 S/m; electrical conductivity (342.65 K): 0.0649 ± 0.026 S/m; electrical conductivity (342.75 K): 0.0651 ± 0.026 S/m; electrical conductivity (342.85 K): 0.0654 ± 0.026 S/m; electrical conductivity (342.95 K): 0.0656 ± 0.026 S/m; electrical conductivity (343.05 K): 0.0657 ± 0.026 S/m; electrical conductivity (343.15 K): 0.0658 ± 0.026 S/m; electrical conductivity (343.25 K): 0.0662 ± 0.026 S/m; electrical conductivity (343.35 K): 0.0663 ± 0.027 S/m; electrical conductivity (343.45 K): 0.0663 ± 0.027 S/m; electrical conductivity (343.55 K): 0.0664 ± 0.027 S/m; electrical conductivity (343.65 K): 0.0667 ± 0.027 S/m; electrical conductivity (343.75 K): 0.0667 ± 0.027 S/m; electrical conductivity (343.85 K): 0.067 ± 0.027 S/m; electrical conductivity (343.95 K): 0.0674 ± 0.027 S/m; electrical conductivity (344.05 K): 0.0675 ± 0.027 S/m; electrical conductivity (344.15 K): 0.0674 ± 0.027 S/m; electrical conductivity (344.25 K): 0.0677 ± 0.027 S/m; electrical conductivity (344.35 K): 0.0678 ± 0.027 S/m; electrical conductivity (344.45 K): 0.0679 ± 0.027 S/m; electrical conductivity (344.55 K): 0.0679 ± 0.027 S/m; electrical conductivity (344.65 K): 0.068 ± 0.027 S/m; electrical conductivity (344.75 K): 0.0685 ± 0.027 S/m; electrical conductivity (344.85 K): 0.0686 ± 0.027 S/m; electrical conductivity (344.95 K): 0.0689 ± 0.028 S/m; electrical conductivity (345.05 K): 0.0688 ± 0.028 S/m; electrical conductivity (345.15 K): 0.069 ± 0.028 S/m; electrical conductivity (345.25 K): 0.069 S/m and 0.0692 S/m; electrical conductivity (345.35 K): 0.0692 ± 0.028 S/m; electrical conductivity (345.45 K): 0.0694 ± 0.028 S/m; electrical conductivity (345.55 K): 0.0697 ± 0.028 S/m; electrical conductivity (345.65 K): 0.0699 ± 0.028 S/m; electrical conductivity (345.75 K): 0.0699 ± 0.028 S/m; electrical conductivity (345.85 K): 0.07 ± 0.028 S/m; electrical conductivity (345.95 K): 0.0701 ± 0.028 S/m; electrical conductivity (346.05 K): 0.0702 ± 0.028 S/m; electrical conductivity (346.15 K): 0.0704 ± 0.028 S/m; electrical conductivity (346.25 K): 0.0707 ± 0.028 S/m; electrical conductivity (346.35 K): 0.0709 ± 0.028 S/m; electrical conductivity (346.45 K): 0.0708 ± 0.028 S/m; electrical conductivity (346.55 K): 0.0709 ± 0.028 S/m; electrical conductivity (346.65 K): 0.0712 ± 0.028 S/m; electrical conductivity (346.75 K): 0.0712 ± 0.028 S/m; electrical conductivity (346.85 K): 0.0713 ± 0.029 S/m
